27 molecules from ChEMBL document CHEMBL4002583, “Amino derivatives of platanic acid act as selective and potent inhibitors of butyrylcholinesterase” (Eur J Med Chem, 2017) can be followed below.

The target of series [1] is T1, Cholinesterase (Equus caballus, UniProt P81908). Put plainly: Uncompetitive inhibition of equine serum BChE using butyrylthiocholine iodide as substrate preincubated for 20 mins followed by substrate addition measured every 1 min for 30 mins by Cornish-Bowden plot method.
The nature of series [2]: Selectivity ratio of Ki for electric eel AChE to Ki for equine serum BChE.
In series [3] the target is T1, Cholinesterase. Briefly: Competitive inhibition of equine serum BChE using butyrylthiocholine iodide as substrate preincubated for 20 mins followed by substrate addition measured every 1 min for 30 mins by Dixon plot method.
Series [4] addresses T2, Acetylcholinesterase (Electrophorus electricus, UniProt O42275). Briefly: Competitive inhibition of electric eel AChE using acetylthiocholine iodide as substrate preincubated for 20 mins followed by substrate addition measured every 1 min for 30 mins by Dixon plot method.
A short description of series [5]: Selectivity ratio of Ki for equine serum BChE to Ki for electric eel AChE.
Series [6] concerns the target T2, Acetylcholinesterase. Put plainly: Uncompetitive inhibition of electric eel AChE using acetylthiocholine iodide as substrate preincubated for 20 mins followed by substrate addition measured every 1 min for 30 mins by Cornish-Bowden plot method.
A short description of series [7]: Chemical stability in TRIS buffer at pH 8 measured over 2880 mins in presence of BChE by HPLC method. In kind it is physicochemical. The conditions noted are these: pH 8, 48 h.
A short description of series [8]: Chemical stability in TRIS buffer at pH 8 measured over 2880 mins by HPLC method. As to conditions: pH 8, 48 h. In kind it is physicochemical.
Series [9] concerns the target T3, Cholinesterase (Homo sapiens, UniProt P06276). Briefly: Inhibition of human serum BChE using butyrylthiocholine iodide as substrate by Ellman's method.
Series [10] deals with Acetylcholinesterase (Homo sapiens, UniProt P22303). Put plainly: Inhibition of […] using acetyl-(beta-methyl)thiocholine as substrate preincubated for 30 mins followed by substrate addition measured after 25 mins by spectrophotometric method.
For series [11], the target named is T3, Cholinesterase. Put plainly: Inhibition of […] using S-butyrylthiocholine as substrate preincubated for 30 mins followed by substrate addition measured after 25 mins by spectrophotometric method.

A value given as a limit tells only on which side of the number the result lay.

T2 sequence (O42275 whole entry): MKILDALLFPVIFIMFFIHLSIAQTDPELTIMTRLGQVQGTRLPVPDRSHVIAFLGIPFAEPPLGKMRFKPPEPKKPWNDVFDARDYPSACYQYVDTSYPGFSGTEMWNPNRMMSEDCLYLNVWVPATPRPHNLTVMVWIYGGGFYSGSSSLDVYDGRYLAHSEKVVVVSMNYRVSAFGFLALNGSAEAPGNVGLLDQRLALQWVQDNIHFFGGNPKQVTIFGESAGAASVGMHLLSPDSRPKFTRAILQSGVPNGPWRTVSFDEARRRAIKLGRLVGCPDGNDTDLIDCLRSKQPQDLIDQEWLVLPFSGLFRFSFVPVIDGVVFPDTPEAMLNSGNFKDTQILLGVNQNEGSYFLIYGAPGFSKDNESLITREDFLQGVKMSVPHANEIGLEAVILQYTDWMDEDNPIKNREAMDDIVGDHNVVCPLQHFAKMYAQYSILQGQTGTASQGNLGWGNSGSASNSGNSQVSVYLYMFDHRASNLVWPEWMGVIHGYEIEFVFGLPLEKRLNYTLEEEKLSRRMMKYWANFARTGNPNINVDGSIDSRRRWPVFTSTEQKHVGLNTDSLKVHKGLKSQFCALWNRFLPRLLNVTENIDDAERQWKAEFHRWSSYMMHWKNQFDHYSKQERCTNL
T1 sequence (P81908 whole entry): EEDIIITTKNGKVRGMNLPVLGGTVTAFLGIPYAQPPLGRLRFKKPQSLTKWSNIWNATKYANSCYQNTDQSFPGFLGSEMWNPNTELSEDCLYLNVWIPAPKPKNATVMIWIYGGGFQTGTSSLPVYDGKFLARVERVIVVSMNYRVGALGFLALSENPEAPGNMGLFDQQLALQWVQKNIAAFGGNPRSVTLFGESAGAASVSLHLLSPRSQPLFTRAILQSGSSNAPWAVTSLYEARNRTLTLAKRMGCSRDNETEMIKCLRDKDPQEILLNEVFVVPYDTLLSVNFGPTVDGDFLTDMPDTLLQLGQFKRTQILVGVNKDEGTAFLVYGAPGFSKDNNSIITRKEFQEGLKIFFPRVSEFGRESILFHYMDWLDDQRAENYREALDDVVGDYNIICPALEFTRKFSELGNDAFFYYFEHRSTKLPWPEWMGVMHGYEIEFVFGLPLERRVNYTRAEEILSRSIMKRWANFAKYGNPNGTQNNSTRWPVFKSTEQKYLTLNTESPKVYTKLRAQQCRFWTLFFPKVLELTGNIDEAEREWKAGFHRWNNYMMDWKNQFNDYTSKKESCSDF
T3 sequence (P06276 whole entry): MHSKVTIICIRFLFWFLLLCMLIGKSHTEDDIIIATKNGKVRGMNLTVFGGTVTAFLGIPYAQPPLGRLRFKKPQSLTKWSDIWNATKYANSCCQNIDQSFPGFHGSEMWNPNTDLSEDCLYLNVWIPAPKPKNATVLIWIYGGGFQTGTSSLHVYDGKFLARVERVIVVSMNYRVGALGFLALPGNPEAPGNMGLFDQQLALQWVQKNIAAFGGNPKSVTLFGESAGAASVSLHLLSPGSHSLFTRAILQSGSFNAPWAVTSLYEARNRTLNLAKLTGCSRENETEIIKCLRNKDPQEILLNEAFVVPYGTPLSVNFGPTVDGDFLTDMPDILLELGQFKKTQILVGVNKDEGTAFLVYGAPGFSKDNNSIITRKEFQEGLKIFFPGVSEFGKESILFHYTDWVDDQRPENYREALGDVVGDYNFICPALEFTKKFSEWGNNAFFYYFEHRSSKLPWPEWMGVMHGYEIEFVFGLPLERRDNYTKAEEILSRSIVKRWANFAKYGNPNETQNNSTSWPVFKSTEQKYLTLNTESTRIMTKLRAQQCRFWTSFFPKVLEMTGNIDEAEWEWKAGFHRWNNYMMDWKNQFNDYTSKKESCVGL
Sequence of Acetylcholinesterase (Homo sapiens, UniProt P22303) (P22303 whole entry): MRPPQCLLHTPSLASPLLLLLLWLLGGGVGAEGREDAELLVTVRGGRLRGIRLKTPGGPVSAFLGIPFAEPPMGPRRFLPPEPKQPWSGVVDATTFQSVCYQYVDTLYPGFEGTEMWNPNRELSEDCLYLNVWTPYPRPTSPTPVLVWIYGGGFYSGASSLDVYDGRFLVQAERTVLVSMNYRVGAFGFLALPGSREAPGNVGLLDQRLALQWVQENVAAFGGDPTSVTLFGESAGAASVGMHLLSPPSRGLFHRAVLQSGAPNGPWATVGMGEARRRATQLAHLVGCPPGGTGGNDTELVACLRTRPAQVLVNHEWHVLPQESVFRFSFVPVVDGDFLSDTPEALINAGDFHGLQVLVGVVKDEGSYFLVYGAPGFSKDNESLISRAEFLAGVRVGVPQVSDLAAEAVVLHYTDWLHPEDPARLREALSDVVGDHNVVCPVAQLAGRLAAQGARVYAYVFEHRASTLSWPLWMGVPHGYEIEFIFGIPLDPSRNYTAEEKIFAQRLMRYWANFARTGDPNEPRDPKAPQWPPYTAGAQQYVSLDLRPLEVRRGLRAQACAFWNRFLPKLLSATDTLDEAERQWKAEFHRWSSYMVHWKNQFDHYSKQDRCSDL

`COC(=O)[C@]12CC[C@@H]([C@@H](C)N)[C@@H]1[C@H]1CC[C@@H]3[C@@]4(C)CC[C@H](OC(C)=O)C(C)(C)[C@@H]4CC[C@@]3(C)[C@]1(C)CC2`: the Ki (usually the dissociation constant of the complex between target and ligand, obtained from inhibition or displacement) in series [1] was 0.05 µM; in series [3], 0.09 µM; in series [4] it was above 4 µM. Further, the Ratio Ki in series [2] is above 44.

For `CC(=O)O[C@H]1CC[C@]2(C)[C@H]3CC[C@@H]4[C@H]5[C@H](C(C)=O)CC[C@]5(C(=O)O)CC[C@@]4(C)[C@]3(C)CC[C@H]2C1(C)C`, the inhibitory constant (Ki) in series [3] was above 10 µM; in series [4], 9 µM. The Ratio Ki in series [5] is above 1.1.

Regarding `CC(=O)O[C@H]1CC[C@]2(C)[C@H]3CC[C@@H]4[C@H]5[C@H]([C@H](C)N)CC[C@]5(C(=O)OCc5ccccc5)CC[C@@]4(C)[C@]3(C)CC[C@H]2C1(C)C`, the Ki in series [1] turned out to be 6.78 µM; in [3] it was 0.38 µM; in series [6] it was 34.2 µM; in series [4] it was 10.7 µM. For the same molecule, the Ratio Ki in [2] came to 28.

As to `C[C@@H](N)[C@@H]1CC[C@]2(C(=O)OCc3ccccc3)CC[C@]3(C)[C@H](CC[C@@H]4[C@@]5(C)CC[C@H](O)C(C)(C)[C@@H]5CC[C@]43C)[C@@H]12`, the Stability result in series [7] and in series [8] was “Stable” in each case. For the same molecule, the inhibition constant Ki in series [1] worked out at 0.19 µM; in series [3], 0.07 µM; in [6], 47.8 µM; in [4] it was 11 µM. Also, in series [2], the Ratio Ki is 157.

For the molecule `COC(=O)[C@]12CC[C@@H]([C@@H](C)NC(C)=O)[C@@H]1[C@H]1CC[C@@H]3[C@@]4(C)CC[C@H](OC(C)=O)C(C)(C)[C@@H]4CC[C@@]3(C)[C@]1(C)CC2`, the Ki in series [3] and in series [4] was above 4 µM throughout.

As for `CC(=O)[C@@H]1CC[C@]2(C(=O)OCc3ccccc3)CC[C@]3(C)[C@H](CC[C@@H]4[C@@]5(C)CCC(=O)C(C)(C)[C@@H]5CC[C@]43C)[C@@H]12`, the Ki is above 10 µM in series [3], 4.59 µM in series [6] and 2.63 µM in [4]. Besides, the Ratio Ki in series [5] is above 3.8.

Turning to `CC(=O)O[C@H]1CC[C@]2(C)[C@H]3CC[C@@H]4[C@H]5[C@H]([C@@H](C)N)CC[C@]5(C(=O)O)CC[C@@]4(C)[C@]3(C)CC[C@H]2C1(C)C`, the Ki in series [1] was 2.75 µM; in [3], 0.1 µM; in series [4], 20.9 µM. Further, the Ratio Ki in series [2] came out at 209.

On to `CC(=O)[C@@H]1CC[C@]2(C(=O)OCc3ccccc3)CC[C@]3(C)[C@H](CC[C@@H]4[C@@]5(C)CC[C@@H](N)C(C)(C)[C@@H]5CC[C@]43C)[C@@H]12`, for which the Ki in series [1] was 5.98 µM; in series [3], 1.8 µM; in series [6], above 90 µM; in series [4], 20.3 µM. In series [2], the Ratio Ki was determined as 11.

For `COC(=O)[C@]12CC[C@@H](NC(C)=O)[C@@H]1[C@H]1CC[C@@H]3[C@@]4(C)CC[C@H](OC(C)=O)C(C)(C)[C@@H]4CC[C@@]3(C)[C@]1(C)CC2`, the Ki in series [3] is above 20 µM; in series [4], 14.1 µM. For the same molecule, the Ratio Ki in series [5] was above 1.4.

For `CCC(=O)O/N=C(\C)[C@@H]1CC[C@]2(C(=O)OC)CC[C@]3(C)[C@H](CC[C@@H]4[C@@]5(C)CC[C@H](OC(C)=O)C(C)(C)[C@@H]5CC[C@]43C)[C@@H]12`, the Ki in [3] and in series [4] was above 30 µM throughout.

In the case of `CC(=O)O[C@H]1CC[C@]2(C)[C@H]3CC[C@@H]4[C@H]5[C@H](C(C)=O)CC[C@]5(C(N)=O)CC[C@@]4(C)[C@]3(C)CC[C@H]2C1(C)C`, the inhibitory constant (Ki) in [3] is above 10 µM; in series [6] it was 10.9 µM; in series [4], 8.16 µM. Besides, the Ratio Ki in series [5] was above 1.2.

`COC(=O)[C@]12CC[C@@H]([C@H](C)NC(C)=O)[C@@H]1[C@H]1CC[C@@H]3[C@@]4(C)CC[C@H](OC(C)=O)C(C)(C)[C@@H]4CC[C@@]3(C)[C@]1(C)CC2`: the Ki in [3] was above 40 µM; in series [6], 45.6 µM; in series [4], 11.8 µM. Also, the Ratio Ki in [5] was above 3.4.

Regarding `CC(=O)OC[C@]12CC[C@@H]([C@@H](C)N)[C@@H]1[C@H]1CC[C@@H]3[C@@]4(C)CC[C@H](OC(C)=O)C(C)(C)[C@@H]4CC[C@@]3(C)[C@]1(C)CC2`, the results for the Ki in series [1], in series [3] and in [4] were 0.37 µM, 0.06 µM and 4.5 µM, respectively. Further, in [2], the Ratio Ki was determined as 75.

With `CC(=O)[C@@H]1CC[C@]2(C(=O)O)CC[C@]3(C)[C@H](CC[C@@H]4[C@@]5(C)CC[C@H](O)C(C)(C)[C@@H]5CC[C@]43C)[C@@H]12` [PLATANIC ACID], the figures for the Ki in series [3], in series [6] and in [4] were above 50 µM, 36.9 µM and 31.6 µM, respectively. For the same molecule, the Ratio Ki in series [5] is above 1.6.

`CC(=O)[C@@H]1CC[C@]2(N)CC[C@]3(C)[C@H](CC[C@@H]4[C@@]5(C)CC[C@H](O)C(C)(C)[C@@H]5CC[C@]43C)[C@@H]12`: the Ki in [1] is 38.9 µM; in series [3], 6.39 µM; in series [6], above 120 µM; in series [4] it was 20.9 µM. In addition, in series [2], the Ratio Ki came to 3.3.

In the case of `CC(=O)O[C@H]1CC[C@]2(C)[C@H]3CC[C@@H]4[C@H]5[C@H](C(C)=O)CC[C@]5(C(=O)OCc5ccccc5)CC[C@@]4(C)[C@]3(C)CC[C@H]2C1(C)C`, the Ki in series [1] is above 400 µM; in series [3], 33.1 µM; in [6], 0.21 µM; in series [4] it was 0.09 µM. Further, the Ratio Ki in series [5] amounted to 368.

Molecule `CC(C)c1ccc(NC(=O)Oc2ccc3c(c2)[C@]2(C)CCN[C@@H]2N3)cc1` returned a Ki in [9] of 0.000131 µM. The figures for the IC50 in [10] and in series [11] were 0.11 µM and 0.001 µM, respectively.

Turning to `C[C@@H](N)[C@@H]1CC[C@]2(CO)CC[C@]3(C)[C@H](CC[C@@H]4[C@@]5(C)CC[C@H](O)C(C)(C)[C@@H]5CC[C@]43C)[C@@H]12`, the Ki is 1.89 µM in series [1], 0.14 µM in series [3], 104 µM in series [6] and 53.1 µM in series [4]. In series [2], the Ratio Ki is 378.

For `CC(=O)[C@@H]1CC[C@]2(C(=O)OCc3ccccc3)CC[C@]3(C)[C@H](CC[C@@H]4[C@@]5(C)CC[C@H](N)C(C)(C)[C@@H]5CC[C@]43C)[C@@H]12`, the Ki in series [1] stood at 3.5 µM; in series [3], 0.56 µM; in series [6] it was 76.6 µM; in series [4] it was 13.4 µM. In addition, the Ratio Ki in series [2] was found to be 24.

As for `CC(=O)O[C@H]1CC[C@]2(C)[C@H]3CC[C@@H]4[C@H]5[C@H](C(C)=O)CC[C@]5(C(=O)NCCN)CC[C@@]4(C)[C@]3(C)CC[C@H]2C1(C)C`, the Ki in series [1] is 17.1 µM; in [3], 11.9 µM; in series [6], 6.83 µM; in [4] it was 3.06 µM. For the same molecule, in series [5], the Ratio Ki was determined as 3.9.

Consider `CC(=O)[C@@H]1CC[C@]2(C(=O)OCc3ccccc3)CC[C@]3(C)[C@H](CC[C@@H]4[C@@]5(C)CC[C@H](O)C(C)(C)[C@@H]5CC[C@]43C)[C@@H]12`, for which the figures for the Ki in series [3], in [6] and in [4] were above 10 µM, 4.06 µM and 0.59 µM, respectively. The Ratio Ki in series [5] is above 17.

In the case of `COC(=O)[C@]12CC[C@@H]([C@H](C)N)[C@@H]1[C@H]1CC[C@@H]3[C@@]4(C)CC[C@H](OC(C)=O)C(C)(C)[C@@H]4CC[C@@]3(C)[C@]1(C)CC2`, the Ki was 3.89 µM in series [1], 0.23 µM in [3], above 80 µM in series [6] and above 40 µM in [4]. Moreover, in series [2], the Ratio Ki was above 173.

On to `COC(=O)[C@]12CC[C@@H](/C(C)=N/OC(C)=O)[C@@H]1[C@H]1CC[C@@H]3[C@@]4(C)CC[C@H](OC(C)=O)C(C)(C)[C@@H]4CC[C@@]3(C)[C@]1(C)CC2`, for which the Ki in series [3] and in [4] was above 15 µM each time.

With `CC(=O)O[C@H]1CC[C@]2(C)[C@H]3CC[C@@H]4[C@H]5[C@H](/C(C)=N/O)CC[C@]5(C(=O)O)CC[C@@]4(C)[C@]3(C)CC[C@H]2C1(C)C`, the Stability result in series [7] and in series [8] was “Stable” throughout.

Turning to `CC(=O)[C@@H]1CC[C@]2(C(=O)NCCN)CC[C@]3(C)[C@H](CC[C@@H]4[C@@]5(C)CC[C@H](O)C(C)(C)[C@@H]5CC[C@]43C)[C@@H]12`, the Ki was above 110 µM in series [1], 8.37 µM in series [3], 9.71 µM in [6] and 7.18 µM in [4]. Further, in series [5], the Ratio Ki stood at 1.2.

For the molecule `COC(=O)[C@]12CC[C@@H](C(C)=O)[C@@H]1[C@H]1CC[C@@H]3[C@@]4(C)CC[C@H](O)C(C)(C)[C@@H]4CC[C@@]3(C)[C@]1(C)CC2`, the Ki in [3] was above 4 µM; in series [4] it was 0.76 µM. Besides, the Ratio Ki in series [5] was above 5.

For the molecule `CC(=O)O[C@H]1CC[C@]2(C)[C@H]3CC[C@@H]4[C@H]5[C@H]([C@@H](C)N)CC[C@]5(C(=O)OCc5ccccc5)CC[C@@]4(C)[C@]3(C)CC[C@H]2C1(C)C`, the Ki in [1] came out at 0.4 µM; in [3], 0.01 µM; in series [6], 17 µM; in series [4], 8.51 µM. Further, the Ratio Ki in [2] came to 851.
